Where only a bound is given, the exact number is not on record here.

One experiment has as its target T1, HiBit-BRM fusion protein (Homo sapiens, UniProt P51531).
T1 construct: expressed in transfected cells
The experiment in a line: HiBiT-BRM cell-based degradation assay (Nano-Glo HiBiT Lytic Detection, 24 h). The note with it: HeLa cells expressing HiBiT-BRM; for DC50: read-out: BRM HiBit Degradation IC50; for BRM HiBit Degradation Maximum measured: top dose 30 μM. An outline of the steps:
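Luminescence from reconstituted NanoBiT luciferase in lysed HeLa HiBiT-BRM cells served as the measure of remaining BRM after 24 h treatment. Compounds were tested from 30 μM final downward in 3-fold steps. DMSO and 2 μM of a standard BRM/BRG1 degrader defined the scale limits.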
For orientation: HiBiT is a short tag that completes a luciferase, so light tracks the accessible tagged protein.

Experiment [1] addresses T2, HiBit-BRG1 fusion protein (Homo sapiens, UniProt P51532).
T2 construct: expressed in transfected cells
As to the kind of experiment: HiBiT-BRG1 cell-based degradation assay (Nano-Glo HiBiT Lytic Detection, 24 h). The note with it: HeLa cells expressing HiBit-BRG1 and LgBit; for DC50: read-out: BRG1 HiBit Degradation IC50; for Dmax: HeLa, top dose 30 μM, read-out: BRG1 HiBit Degradation Maximum measured. An outline of the steps:
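Stable HeLa line expressing HiBiT-BRG1 and LgBiT, seeded at 5000 cells/well; luminescence read after lytic Nano-Glo HiBiT reagent and 10 min shaking at RT. % degradation normalised between DMSO (high control) and 2 μM reference BRM/BRG1 degrader (low control).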

T2 sequence (P51532 whole entry, the tested form may be a part): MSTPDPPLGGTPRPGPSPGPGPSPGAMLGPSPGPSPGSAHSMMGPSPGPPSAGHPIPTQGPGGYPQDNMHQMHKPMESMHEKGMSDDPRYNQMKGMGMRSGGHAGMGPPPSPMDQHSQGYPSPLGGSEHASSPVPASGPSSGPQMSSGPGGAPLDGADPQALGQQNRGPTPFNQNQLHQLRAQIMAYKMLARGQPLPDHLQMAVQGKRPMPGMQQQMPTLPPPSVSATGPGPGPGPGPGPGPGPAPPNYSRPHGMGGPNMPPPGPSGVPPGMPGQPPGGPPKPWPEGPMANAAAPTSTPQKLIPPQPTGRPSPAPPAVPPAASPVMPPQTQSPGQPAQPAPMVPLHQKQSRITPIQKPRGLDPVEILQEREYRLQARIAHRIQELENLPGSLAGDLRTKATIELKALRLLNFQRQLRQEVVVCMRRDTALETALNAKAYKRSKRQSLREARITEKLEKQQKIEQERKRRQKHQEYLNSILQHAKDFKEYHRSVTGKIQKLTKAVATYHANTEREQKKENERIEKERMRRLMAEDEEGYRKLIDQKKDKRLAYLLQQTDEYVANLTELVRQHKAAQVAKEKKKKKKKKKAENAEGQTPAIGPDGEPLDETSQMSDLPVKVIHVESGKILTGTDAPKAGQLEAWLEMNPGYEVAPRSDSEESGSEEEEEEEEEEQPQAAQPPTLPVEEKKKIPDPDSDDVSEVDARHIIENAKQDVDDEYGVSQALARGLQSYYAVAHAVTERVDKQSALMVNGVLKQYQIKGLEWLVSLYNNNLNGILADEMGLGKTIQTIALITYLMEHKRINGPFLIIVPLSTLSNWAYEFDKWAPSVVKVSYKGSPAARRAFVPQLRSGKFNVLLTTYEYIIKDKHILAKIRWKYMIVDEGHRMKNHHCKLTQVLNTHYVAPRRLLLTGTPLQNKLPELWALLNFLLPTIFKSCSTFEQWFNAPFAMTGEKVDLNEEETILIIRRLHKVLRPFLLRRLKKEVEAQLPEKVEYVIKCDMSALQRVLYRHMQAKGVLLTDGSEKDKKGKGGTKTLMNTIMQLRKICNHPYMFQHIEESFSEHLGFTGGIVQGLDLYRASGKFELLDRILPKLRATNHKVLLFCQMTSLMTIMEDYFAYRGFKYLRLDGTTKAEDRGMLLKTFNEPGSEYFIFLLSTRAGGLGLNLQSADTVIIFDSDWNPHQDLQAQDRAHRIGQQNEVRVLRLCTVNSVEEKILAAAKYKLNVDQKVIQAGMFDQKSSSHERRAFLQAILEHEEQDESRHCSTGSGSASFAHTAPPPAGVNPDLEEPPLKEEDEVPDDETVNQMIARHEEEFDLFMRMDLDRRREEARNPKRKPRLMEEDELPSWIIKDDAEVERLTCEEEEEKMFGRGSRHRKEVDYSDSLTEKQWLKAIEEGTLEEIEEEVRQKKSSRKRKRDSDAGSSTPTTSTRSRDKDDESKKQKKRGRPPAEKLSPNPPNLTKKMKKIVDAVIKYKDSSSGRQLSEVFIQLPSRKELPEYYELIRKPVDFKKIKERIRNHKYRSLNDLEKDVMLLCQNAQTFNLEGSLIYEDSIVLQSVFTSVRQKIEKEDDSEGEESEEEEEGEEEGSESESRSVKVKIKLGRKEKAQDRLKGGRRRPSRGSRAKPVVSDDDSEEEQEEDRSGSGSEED
T1 sequence (P51531 whole entry, the tested form may be a part): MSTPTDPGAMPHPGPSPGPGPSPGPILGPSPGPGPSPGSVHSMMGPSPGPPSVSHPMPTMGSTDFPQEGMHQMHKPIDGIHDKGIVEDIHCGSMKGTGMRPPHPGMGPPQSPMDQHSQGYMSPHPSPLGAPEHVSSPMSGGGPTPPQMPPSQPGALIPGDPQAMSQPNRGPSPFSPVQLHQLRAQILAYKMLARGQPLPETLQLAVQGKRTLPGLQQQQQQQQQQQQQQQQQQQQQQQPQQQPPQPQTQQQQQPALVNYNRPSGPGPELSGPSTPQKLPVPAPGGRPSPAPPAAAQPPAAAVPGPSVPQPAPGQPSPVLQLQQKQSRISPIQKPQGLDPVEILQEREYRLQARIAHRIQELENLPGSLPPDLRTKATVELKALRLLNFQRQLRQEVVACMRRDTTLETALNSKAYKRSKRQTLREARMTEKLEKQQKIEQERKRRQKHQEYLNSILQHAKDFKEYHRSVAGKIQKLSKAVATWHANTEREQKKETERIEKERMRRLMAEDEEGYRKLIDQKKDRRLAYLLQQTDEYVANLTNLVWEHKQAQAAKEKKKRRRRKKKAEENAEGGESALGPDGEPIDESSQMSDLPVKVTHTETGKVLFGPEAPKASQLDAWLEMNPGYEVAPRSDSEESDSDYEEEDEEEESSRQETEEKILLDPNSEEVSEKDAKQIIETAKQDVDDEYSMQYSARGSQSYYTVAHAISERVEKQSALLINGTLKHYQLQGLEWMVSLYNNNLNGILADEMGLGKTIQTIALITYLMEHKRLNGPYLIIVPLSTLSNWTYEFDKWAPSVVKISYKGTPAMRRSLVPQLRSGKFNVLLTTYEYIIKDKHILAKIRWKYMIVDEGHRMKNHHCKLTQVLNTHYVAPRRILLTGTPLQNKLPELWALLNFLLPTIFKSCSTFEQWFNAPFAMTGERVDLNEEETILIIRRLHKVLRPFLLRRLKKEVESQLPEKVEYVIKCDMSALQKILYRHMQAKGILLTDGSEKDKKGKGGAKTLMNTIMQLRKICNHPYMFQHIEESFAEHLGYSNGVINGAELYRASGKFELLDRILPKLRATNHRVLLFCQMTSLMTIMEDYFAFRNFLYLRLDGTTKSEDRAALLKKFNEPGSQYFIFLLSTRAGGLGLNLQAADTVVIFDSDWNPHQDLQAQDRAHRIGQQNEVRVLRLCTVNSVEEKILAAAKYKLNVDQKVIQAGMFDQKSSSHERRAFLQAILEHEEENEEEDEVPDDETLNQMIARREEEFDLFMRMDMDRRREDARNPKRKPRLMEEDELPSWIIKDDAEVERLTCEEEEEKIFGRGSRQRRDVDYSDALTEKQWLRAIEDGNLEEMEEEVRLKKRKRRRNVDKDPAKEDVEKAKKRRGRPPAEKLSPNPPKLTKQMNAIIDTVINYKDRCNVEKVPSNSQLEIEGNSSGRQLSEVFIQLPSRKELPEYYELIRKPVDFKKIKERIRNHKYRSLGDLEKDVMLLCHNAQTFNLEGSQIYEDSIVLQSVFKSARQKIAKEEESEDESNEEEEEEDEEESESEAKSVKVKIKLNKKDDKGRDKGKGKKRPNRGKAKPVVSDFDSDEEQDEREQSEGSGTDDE

Turning to `CS(=O)(=O)n1ccc(C(=O)NCC(=O)Nc2nc(-c3cccc(-c4ccnc(C5(C(=O)NCCCCS(=O)(=O)CCCNc6cccc7c6C(=O)N(C6CCC(=O)NC6=O)C7=O)CC5)c4)c3)cs2)c1` (stereo not drawn) [Compound 103, N-(2-((4-(3-(2-(1-((4-((3-((2-(2,6-dioxopiperidin-3-yl)-1,3-dioxoisoindolin-4-yl)amino)propyl)sulfonyl)butyl)carbamoyl)-cyclopropyl)pyridin-4-yl)phenyl)thiazol-2-yl)amino)-2-oxoethyl)-1-(methylsulfonyl)-1H-pyrrole-3-carboxamide], on HiBit-BRM fusion protein, the DC50 was in the range of 0.1 to 1 µM; the “BRM HiBit Degradation Maximum measured” value was “B (‘B’ = Maximum degradation ≥50% and ≤75%)”. In experiment [1], the DC50 was in the range of 0.1 to 1 µM and the Dmax was above 75%.

For the compound `CS(=O)(=O)n1ccc(C(=O)NCC(=O)Nc2nc(-c3cccc(-c4ccnc(C5(C(=O)NCCCCCCNc6ccc7c(c6)C(=O)N(C6CCC(=O)NC6=O)C7=O)CC5)c4)c3)cs2)c1` (stereo not drawn) [Compound 104, N-[2-[[4-[3-[2-[1-[6-[[2-(2,6-dioxo-3-piperidyl)-1,3-dioxo-isoindolin-5-yl]amino]hexylcarbamoyl]cyclopropyl]-4-pyridyl]phenyl]thiazol-2-yl]amino]-2-oxo-ethyl]-1-methylsulfonyl-pyrrole-3-carboxamide], on HiBit-BRM fusion protein, the DC50 is below 0.1 µM and the “BRM HiBit Degradation Maximum measured” value is given as “A (‘A’ = Maximum degradation >75%)”. In experiment [1], the DC50 is below 0.1 µM and the Dmax is above 75%.

`CS(=O)(=O)n1ccc(C(=O)NCC(=O)Nc2nc(-c3cccc(-c4ccnc(C5(C(=O)NCCCCNc6ccc7c(c6)C(=O)N(C6CCC(=O)NC6=O)C7=O)CC5)c4)c3)cs2)c1` (stereo not drawn) [Compound 105, N-[2-[[4-[3-[2-[1-[4-[[2-(2,6-dioxo-3-piperidyl)-1,3-dioxo-isoindolin-5-yl]amino]butylcarbamoyl]cyclopropyl]-4-pyridyl]phenyl]thiazol-2-yl]amino]-2-oxo-ethyl]-1-methylsulfonyl-pyrrole-3-carboxamide]: on HiBit-BRM fusion protein, the DC50 is below 0.1 µM and the “BRM HiBit Degradation Maximum measured” value is “A (‘A’ = Maximum degradation >75%)”. Further, in experiment [1], the DC50 was below 0.1 µM and the Dmax was above 75%.

For `CN(CCCCNC(=O)C1(c2cc(-c3cccc(-c4csc(NC(=O)CNC(=O)c5ccn(S(C)(=O)=O)c5)n4)c3)ccn2)CC1)CCCNc1cccc2c1C(=O)N(C1CCC(=O)NC1=O)C2=O` (stereo not drawn) [Compound 106, N-(2-((4-(3-(2-(1-((4-((3-((2-(2,6-dioxopiperidin-3-yl)-1,3-dioxoisoindolin-4-yl)amino)propyl)(methyl)amino)butyl)-carbamoyl)cyclopropyl)pyridin-4-yl)phenyl)thiazol-2-yl)amino)-2-oxoethyl)-1-(methylsulfonyl)-1H-pyrrole-3-carboxamide], on HiBit-BRM fusion protein, the DC50 is above 10 µM and the “BRM HiBit Degradation Maximum measured” value is on record as “C (‘C’ = Maximum degradation <50%)”. In experiment [1], the DC50 was above 10 µM and the Dmax was below 50%.

As for `CS(=O)(=O)n1ccc(C(=O)NCC(=O)Nc2nc(-c3cccc(-c4ccnc(C5(C(=O)N6CC(COc7ccc8c(c7)C(=O)N(C7CCC(=O)NC7=O)C8=O)C6)CC5)c4)c3)cs2)c1` (stereo not drawn) [Compound 107, N-(2-((4-(3-(2-(1-(3-(((2-(2,6-dioxopiperidin-3-yl)-1,3-dioxoisoindolin-5-yl)oxy)methyl)azetidine-1-carbonyl)cyclopropyl)pyridin-4-yl)phenyl)thiazol-2-yl)amino)-2-oxoethyl)-1-(methylsulfonyl)-1H-pyrrole-3-carboxamide], at HiBit-BRM fusion protein, the DC50 is above 10 µM and the “BRM HiBit Degradation Maximum measured” value is reported as “C (‘C’ = Maximum degradation <50%)”. Moreover, in experiment [1], the DC50 is above 10 µM and the Dmax was below 50%.

In the case of `Cc1ncsc1-c1ccc(CNC(=O)[C@@H]2C[C@@H](O)CN2C(=O)[C@@H](NC(=O)COCCOCCNC(=O)C2(c3cc(-c4cccc(-c5csc(NC(=O)CNC(=O)c6ccn(S(C)(=O)=O)c6)n5)c4)ccn3)CC2)C(C)(C)C)cc1` [Compound 108, N-[2-[[4-[3-[2-[1-[2-[2-[2-[[(1S)-1-[(2S,4R)-4-hydroxy-2-[[4-(4-methylthiazol-5-yl)phenyl]methylcarbamoyl]pyrrolidine-1-carbonyl]-2,2-dimethyl-propyl]amino]-2-oxo-ethoxy]ethoxy]ethylcarbamoyl]cyclopropyl]-4-pyridyl]phenyl]thiazol-2-yl]amino]-2-oxo-ethyl]-1-methylsulfonyl-pyrrole-3-carboxamide], at HiBit-BRM fusion protein, the DC50 was 0.1 to 1 µM and the “BRM HiBit Degradation Maximum measured” value is listed as “A (‘A’ = Maximum degradation >75%)”. For the same compound, in experiment [1], the DC50 lay within 0.1 to 1 µM and the Dmax was above 75%.

Turning to `CS(=O)(=O)n1ccc(C(=O)NCC(=O)Nc2nc(-c3cccc(-c4ccnc(C5(C(=O)N6CC(COc7cccc8c7C(=O)N(C7CCC(=O)NC7=O)C8=O)C6)CC5)c4)c3)cs2)c1` (stereo not drawn) [Compound 109, N-[4-[3-(2-[1-[3-([[2-(2,6-dioxopiperidin-3-yl)-1,3-dioxoisoindol-4-yl]oxy]methyl)azetidine-1-carbonyl]cyclopropyl]pyridin-4-yl)phenyl]-1,3-thiazol-2-yl]-2-[(1-methanesulfonylpyrrol-3-yl)formamido]acetamide], on HiBit-BRM fusion protein, the DC50 is above 10 µM and the “BRM HiBit Degradation Maximum measured” value is on record as “C (‘C’ = Maximum degradation <50%)”. For the same compound, in experiment [1], the DC50 is above 10 µM and the Dmax is below 50%.

Turning to `Cc1ncsc1-c1ccc(CNC(=O)[C@@H]2C[C@@H](O)CN2C(=O)[C@@H](NC(=O)COCCOCCOCCNC(=O)C2(c3cc(-c4cccc(-c5csc(NC(=O)CNC(=O)c6ccn(S(C)(=O)=O)c6)n5)c4)ccn3)CC2)C(C)(C)C)cc1` [Compound 110, N-[2-[[4-[3-[2-[1-[2-[2-[2-[2-[[(1S)-1-[(2S,4R)-4-hydroxy-2-[[4-(4-methylthiazol-5-yl)phenyl]methylcarbamoyl]pyrrolidine-1-carbonyl]-2,2-dimethyl-propyl]amino]-2-oxo-ethoxy]ethoxy]ethoxy]ethylcarbamoyl]-cyclopropyl]-4-pyridyl]phenyl]thiazol-2-yl]amino]-2-oxo-ethyl]-1-methylsulfonyl-pyrrole-3-carboxamide], on HiBit-BRM fusion protein, the DC50 lay in the range of 0.1 to 1 µM; the “BRM HiBit Degradation Maximum measured” value is “B (‘B’ = Maximum degradation ≥50% and ≤75%)”. In experiment [1], the DC50 lay within 0.1 to 1 µM and the Dmax was above 75%.

Turning to `CN(CCNC(=O)COc1ccc2c(c1)C(=O)N(C1CCC(=O)NC1=O)C2=O)CCNC(=O)C1(c2cc(-c3cccc(-c4csc(NC(=O)CNC(=O)c5ccn(S(C)(=O)=O)c5)n4)c3)ccn2)CC1` (stereo not drawn) [Compound 111, N-[2-[[4-[3-[2-[1-[2-[2-[[2-[2-(2,6-dioxo-3-piperidyl)-1,3-dioxo-isoindolin-5-yl]oxyacetyl]amino]ethyl-methylamino]ethylcarbamoyl]cyclopropyl]-4-pyridyl]phenyl]thiazol-2-yl]amino]-2-oxo-ethyl]-1-methylsulfonyl-pyrrole-3-carboxamide], on HiBit-BRM fusion protein, the DC50 was above 10 µM and the “BRM HiBit Degradation Maximum measured” value is listed as “C (‘C’ = Maximum degradation <50%)”. Moreover, in experiment [1], the DC50 was above 10 µM and the Dmax was below 50%.

Values taken from patent US12662479B2 (Foghorn Therapeutics Inc., priority 2020, dated 2026).
